Measurements as given in patent US8853188B2, “Compositions and methods for cancer treatment” (Women and Infants Hospital of RI, Inc., priority 2005, dated 2014).
The star is where a group is joined. Cbz = O=C(OCc1ccccc1)*; CH2F = FC*

Tests used:
[1] = mouse, in vivo
Experimental: FIG. 6A. In vivo studies to determine apparent systemic toxicity of B3CD. Mice were injected with the specified amounts of B3CD (i.p.) once in 48 hr for 28 days. The animals were weighed to assess the effect of B3CD on change in body weight.
FIG. 6B. At the end of the experiment (6A) mice were sacrificed and blood collected to estimate serum calcium as a measure of hypercalcemia.
A major concern was the potential systemic toxicity of B3CD due to hypercalcemia since B3CD (FIG. 1) is a derivative of calcidiol, which is a family member of calcitriol (Schmidt-Gayk H, Bouillon R, Roth H J. Measurement of vitamin D and its metabolites (calcidiol and calcitriol) and their clinical significance. Scand J Clin Lab Invest Suppl. 1997; 227:35-45). Therapeutic doses of calcitriol lead to increased serum calcium and consequently death; therefore, hypercalcemia is a hallmark of lethality of pharmacologic doses of calcitriol. In the event that further testing in vivo might show lethal calcemic side effects, preliminary studies were carried out to determine any overt toxic effects in a murine model.
The effect of B3CD on serum calcium levels in SCID mice was tested. These studies were carried out in Boston University School of Medicine, Boston, Mass., in accordance with institutional guidelines. B3CD, calcidiol and calcitriol were formulated in 80% polyethylene glycol in PBS and were administered as i.p. injections once in 48 hours for 28 days. Animals were euthanized, sera collected and analyzed immediately for serum calcium in the hospital core facility. The animals were divided into 4 groups of 5 animals each.

[2] = test system: SK-N-SH cells; experiment: Cell viability by MTS assay; format: cell-based; settings: 0-800 nM, 48 hours
Experimental: (§1) SK-N-SH and SH-SY5Y neuroblastic cells were treated with increasing doses of calcidiol or B3CD (0, 25, 50, 100, 200, 400 and 800 nM) for 48 hours. Cell viability was assessed by MTS assay and proliferation was determined by BrdU incorporation assay.

[3] = test system: panel of cancer cells; experiment: Antiproliferative and cytotoxic activity on a panel of cancer cells (MTS, 96 well plates); format: cell-based; settings: parent compound used as control; data not shown
From the text: A panel of cancer cells is used to evaluate the antiproliferative and cytotoxic activities of B3CD and related analogs. The cells include colon (Colo), breast (MCF-7 and MDA-MB-231), lung (A549), prostate PC3 and LNCaP), melanoma (SK-MEL-31), renal (Caki-1), ovarian (OVCAR-3), bladder (T24), pancreatic (BxPC-3), hepatocarcinoma (Hep3B), neuroblastoma (SH-SY5Y), glioblastoma (SNB-19), medulloblastoma (D283 Med), skin (LS123), squamous cell carcinoma (Scc-15), acute promyelocytic leukemia (APL), myeloblastic (HL-60) and myelomonocytic (U937).
The anticancer activity testing will be carried out by high throughput screening. The cancer cells will be cultured in 96 well plates and treated with the library. B3CD has been tested in this system and was effective at a 200 nM dose. For general screening, 2-200 nM doses will be used. Cells will be treated with the compounds for 12, 24, 48 and 72 hours. A 96 well plate format allows testing a large number of compounds simultaneously. An MTS based colorimetric method of evaluation of proliferation will be utilized, which is widely used in cancer drug discovery. The fingerprint of profiled drugs using 60 cell-line screening program by NCl using COMPARE algorithm (Paull K D, Shoemaker R H, Hodes L, Monks A, Scudiero D A, Rubinstein L, Plowman J, Boyd M R. Display and analysis of patterns of differential activity of drugs against human tumor cell lines: development of mean graph and COMPARE algorithm. J Natl Cancer Inst 1989; 81:1088).
(§2) Materials and methods. Proliferation was measured by MTS and BrdU incorporation assays. Apoptosis was assessed by DNA fragmentation, Cell Death Detection ELISA and caspase-3-assays. Effect of B3CD on TrkB signaling by BDNF was assessed by Western Blot analysis of AKT and ERK phosphorylation. The effect on angiogenesis was determined by chick chorioallantoic membrane (CAM) assay and aortic ring assay.

[4] = test system: VEGF induced angiogenesis; experiment: Chick chorioallantoic membrane (CAM) assay; format: in vivo; settings: VEGF present
Experimental: as §2
The antiproliferative effect of B3CD on endothelial cells was further investigated.
The ability of B3CD to inhibit angiogenesis/neovascularization was tested. Preliminary studies were carried out using chick chorioallantoic membrane (CAM) assay. Calcidiol or B3CD were deposited in the presence of growth factor (VEGF) and deposited on the CAM and eggs were incubated for 3 days at 37° C. (3% CO2). The control carried the growth factor alone. VEGF induces angiogenesis which results in sprouting of capillaries from the large vessels. The compounds diffuse out and any inhibitory molecule would reduce the growth of blood vessel network.

[5] = test system: caspase-3; experiment: Caspase-3 activation with specific substrate in SK-N-SH cells; format: cell-based
Experimental: Caspases are integral to apoptosis in cells. Following the treatment of SK-N-SH cells with 250 nM B3CD, activation of caspase-3 was measured by using specific substrate.

[6] = test system: SK-N-SH cells; experiment: Proliferation by BrdU incorporation assay; format: cell-based; settings: 0-800 nM, 48 hours
Experimental: as §1

[7] = test system: SMS-KCNR cells; experiment: Apoptosis in apoptosis-resistant NB cells; format: cell-based; settings: pretreatment before B3CD
Experimental: (§3) NB is characterized with defective apoptotic pathways. […] Neuronal (N-) type SH-SY5Y and IMR-32 cells, and stromal (S-) type SMS-KCNR cells which are resistant to apoptosis were used. […] A defect in caspase-8 or its activation causes resistance to apoptosis and in turn to chemotherapy in all these cells. On the other hand, these cells carry intact intrinsic apoptotic pathway, and executioner caspase-3 is activated by caspase-9 route.
(§4) In depth studies were carried out to assess the activation of intrinsic and extrinsic apoptotic pathways. […] Caspase-9 was activated by B3CD in these cells (FIG. 10B), indicating an active role of intrinsic pathway of apoptosis. […] However, caspase-8 was undetectable in IMR-32 and SH-SY5Y cells.
(§5) Although caspase-8 was detected in SMS-KCNR cells, it was not activated by B3CD (FIG. 10D). Actin immunoblotting was used as loading control in the above studies (data not shown).

[8] = test system: IMR-32 cells; experiment: Apoptosis in apoptosis-resistant NB cells; format: cell-based; settings: IMR-32, pretreatment before B3CD
Experimental: as §3, §4, §5

[9] = test system: SH-SY5Y, IMR-32 and SMS-KCNR cells; settings: cells with defects in caspase-8 activation; cited from earlier work

Compound: C=C1/C(=C\C=C2/CCC[C@]3(C)[C@@H]([C@H](C)CCCC(C)(C)O)CC[C@@H]23)C[C@@H](O)C[C@@H]1O [calcitriol, 1,25-dihydroxy-vitamin D3, reference compound]
- clinical signs (lethargy, tolerance to handling, mobility) [1]: appeared lethargic and exhibited a decreased tolerance to handling with reduced mobility

Compound: C=C1CC[C@H](O)C/C1=C/C=C1\CCC[C@@]2(C)C1CC[C@@H]2[C@H](C)CCCC(C)(C)O (stereo partly drawn) [calcidiol, (1 S,Z)-3-(2-((1R,7aR,E)-1-((R)-6-hydroxy-6-methylheptan-2-yl)-7a-methyloctahydro-4H-inden-4-ylidene)ethylidene)-4-methylenecyclohexan-1-ol, reference compound]
- viability of SK-N-SH cells (in words) [2]: did not show any similar effects
- antiproliferative, cytotoxic, apoptotic activities [3]: did not exhibit any antiproliferative, cytotoxic, apoptotic activities
- inhibition of angiogenesis / neovascularization (in words) [4]: no inhibition of neovascularization
- caspase-3 activation (in words) [5]: did not show any significant change
- proliferation, BrdU incorporation [6]: did not show inhibitory activity

Compound: Cbz-LEHD-CH2F [reference compound]
- effect of pretreatment on B3CD induced apoptosis [7]: effectively inhibited apoptosis
- effect of pretreatment on B3CD induced apoptosis [8]: effectively inhibited apoptosis

Compound: COc1cccc2c1C(=O)c1c(O)c3c(c(O)c1C2=O)C[C@@](O)(C(=O)CO)C[C@@H]3O[C@H]1C[C@H](N)[C@H](O)[C@H](C)O1 [doxorubicin]
- apoptosis and activation of caspase-9 and -3 [9]: undergo apoptosis and activation of caspase-9 and -3
